Data as given in patent publication US9232796B2, “Herbicidal compositions comprising 4-amino-3-chloro-5-fluoro-6-(4-chloro-2-fluoro-3-methoxyphenyl) pyridine-2-carboxylic acid or a derivative thereof and acetyl-CoA carboxylase (ACCase) inhibitors” (DOW AGROSCIENCES LLC, priority 2012, dated 2016).

Legend:
CYPIR = test: Example V post-emergence field trials in direct-seeded rice; type: in vivo, Cyperus iria; conditions: foliar, field trial Tolima, Colombia
Description: Multiple field trials were conducted under commercial grower field conditions in Tolima, Colombia; Thessaloniki, Greece; Bianze and Copiano, Italy; and Humphrey, Ark., USA. Trials sites were located in commercially grown fields of direct-seeded rice (Oryza sativa) using standard herbicide small plot research methodology. Plots varied from 2 to 3 meter (m)×5 to 8 m (width×length) with 4 replicates per treatment. The rice crop was grown using normal cultural practices for fertilization, seeding, watering, flooding and maintenance to ensure good growth of the crop and the weeds.
All treatments in the field trials were applied using a backpack compressed air/gas sprayer with flat fan nozzles (80° or 110°) calibrated to apply 187 to 300 L/ha spray volume at approximately 200-400 kPa nozzle pressure. Commercially available products of cyhalofop-butyl (Clincher 180EC, Clincher 200EC, and Clincher SF (285 gr ai/L EC)) were mixed in water at appropriate formulated product rates to achieve the desired rates based on a unit area of application (hectare) to achieve the desired rates as shown. Treatments were rate at 19 to 58 days after application (DAA) as compared to the untreated control plants. Visual weed control was scored on a scale of 0 to 100 percent where 0 corresponds to no injury and 100 corresponds to complete kill. […]

IPOHE = test: Example V (second) postemergence foliar-applied ternary mixtures, greenhouse, direct seeded rice weeds; type: in vivo, Ipomoea hederacea Jacq.
Description: (§1) The treated plants and control plants were placed in a greenhouse as described above and watered by sub-irrigation to prevent wash-off of the test compounds. After approximately 3 weeks, the condition of the test plants as compared with that of the untreated plants was determined visually and scored on a scale of 0 to 100 percent where 0 corresponds to no injury or growth inhibition and 100 corresponds to complete kill.
(§2) Colby's equation was used to determine the herbicidal effects expected from the mixtures (Colby, S. R. 1967. Calculation of the synergistic and antagonistic response of herbicide combinations. Weeds 15:20-22.).
The following equation was used to calculate the expected activity of mixtures containing three active ingredients, A, B, and C: Expected=A+B+C−((A×B+A×C+B×C)/100)+(A×B×C/10000)

SCPMA [1] = test: Example VI in-water applied ternary mixtures, greenhouse, transplanted paddy rice weeds; type: in vivo
SCPMA [2] = test: as above; type: in vivo, Schoenoplectus maritimus (L.) Lye
Description: Applications were made by injecting with a pipetter appropriate amounts of the application solutions, into the aqueous layer of the paddy. Control plants were treated in the same manner with the solvent blank. Applications were made so that all treated plant material received the same concentrations of acetone and crop oil concentrate.
as §1, with “water was added as needed” for “watered by sub-irrigation”, “maintain a paddy flood.” for “prevent wash-off of the test compounds.”, “weeks” for “weeks,”
as §2
The following equation was used to calculate the expected activity of mixtures containing three active ingredients, A. B, and C: Expected=A+B+C−((A×B+A×C+B×C)/100)+(A×B×C/10000)

With `CCCCOC(=O)[C@@H](C)Oc1ccc(Oc2ccc(C#N)cc2F)cc1` [Cyhalofop-butyl, butyl(2R)-2-[4-(4-cyano-2-fluorophenoxy)phenoxy]propanoate, reference compound] the “Visual Weed Control (%) - 19 DAA CYPIR Obs” value (CYPIR; 280 gai/ha) was 0%, the “Visual Weed Control (%) - 21 DAA IPOHE Obs” value (IPOHE; 17.5 gai/ha) was 0% and the “Visual Weed Control (%) - 21 DAA IPOHE Obs” value (IPOHE; 35 gai/ha) was 0%. The “Visual Weed Control (%) - 21 DAA IPOHE Obs” value (IPOHE; 35 gai/ha, lower sub-table) was 0%, the “Visual Weed Control (%) - 21 DAA IPOHE Obs” value (IPOHE; 35 gai/ha, upper sub-table) was 0% and the “Visual Weed Control (%) - 21 DAA SCPMA Obs” value (SCPMA [1]; Table 68, cyhalofop-butyl 22.5 gai/ha) was 0%. For the same molecule, the “Visual Weed Control (%) - 21 DAA SCPMA Obs” value (SCPMA [1]; Table 68, cyhalofop-butyl 45 gai/ha) was 0% and the “Visual Weed Control (%) - 24 DAA SCPMA Obs” value (SCPMA [2]; 180 gai/ha) was 0%.
In the case of `COc1c(Cl)ccc(-c2nc(C(=O)OCc3ccccc3)c(Cl)c(N)c2F)c1F` [Compound A Benzyl Ester, benzyl ester of 4-amino-3-chloro-5-fluoro-6-(4-chloro-2-fluoro-3-methoxy-phenyl)pyridine-2-carboxylic acid], the “Visual Weed Control (%) - 19 DAA CYPIR Obs” value (CYPIR; 12 gae/ha) is reported as 69%, the “Visual Weed Control (%) - 21 DAA IPOHE Obs” value (IPOHE; 2.19 gae/ha, upper sub-table) is reported as 30% and the “Visual Weed Control (%) - 21 DAA IPOHE Obs” value (IPOHE; 4.38 gae/ha, upper sub-table) is reported as 38%. For the same molecule, the “Visual Weed Control (%) - 21 DAA IPOHE Obs” value (IPOHE; 8 ae/ha) was 20%, the “Visual Weed Control (%) - 21 DAA IPOHE Obs” value (IPOHE; 8 gae/ha) was 10% and the “Visual Weed Control (%) - 21 DAA IPOHE Obs” value (IPOHE; 8 gae/ha, lower sub-table) was 15%. For the same molecule, the “Visual Weed Control (%) - 21 DAA IPOHE Obs” value (IPOHE; 16 gae/ha) was 30%, the “Visual Weed Control (%) - 21 DAA IPOHE Obs” value (IPOHE; 16 gae/ha, lower sub-table) was 33% and the “Visual Weed Control (%) - 21 DAA SCPMA Obs” value (SCPMA [1]; Table 68, 4 gae/ha) was 0%. For the same molecule, the “Visual Weed Control (%) - 21 DAA SCPMA Obs” value (SCPMA [1]; Table 68, 8 gae/ha) was 0%, the “Visual Weed Control (%) - 21 DAA SCPMA Obs” value (SCPMA [1]; Table 68, 16 gae/ha) was 0% and the “Visual Weed Control (%) - 24 DAA SCPMA Obs” value (SCPMA [2]; 4 gae/ha) was 0%. The “Visual Weed Control (%) - 24 DAA SCPMA Obs” value (SCPMA [2]; 8 gae/ha) was 0% and the “Visual Weed Control (%) - 24 DAA SCPMA Obs” value (SCPMA [2]; 16 gae/ha) was 0%.
